Tests used:
Format in all cases: in vivo
[1] = test system: M. incognita (Root Knot Nematode) larvae; assay: Evaluation of test compounds against M. incognita larvae in microtiter plate wells (movement score); settings: larvae scored for movement after 20-24 hours; note: key: A score of '9' indicates inactive worms with a straight, sticklike morphology; A score of '8' indicates inactive worms with a limp, curled or curved morphology; A score of '7' indicates dead/paralyzed worms after 72 hours
Protocol: Evaluation of Test Compounds Against M. incognita (Root Knot Nematode)
Newly emerged M. incognita larvae are suspended in S Medium (buffered salt solution) to a concentration of 50-65 worms per 50 μl. 50 μl of the worm suspension are pipetted into microtiter plate wells containing the test compounds. The plates are then covered with plactic plate sealers to reduce loss of volume by evaporation. After 20-24 hours of incubation, the larvae are scored for movement. Wells containing obviously dead/paralyzed larvae are scored as positive. […] A score of “7” indicates dead/paralyzed worms after […].

[2] = test system: C. elegans (Bristol strain); assay: Evaluation of test compounds against C. elegans (motility, 96-well plate); set-up: key: 9=complete kill in 4 hours; 8=complete kill in 24 hours; 7=markedly reduced motility in approximately 95% of worms in 24 hours; 0=normal motility, same as controls; settings: motility at 4 and 24 hours
Protocol: Evaluation of Test Compounds Against C. elegans Cultures of C. elegans (Bristol strain from J. Lewis) are maintained on E. coli lawns on NG Agar Plates at 20° C. New cultures are established weekly. Nematodes for testing are washed from cultures using Na buffer. Compounds are dissolved in 80% acetone. The test material is micropipetted (25 μl) into a single well of a 96-well sterile tissue culture plate and the solvent allowed to evaporate. A freshly prepared volume (50 μl) of C. elegans in Na buffer is micropipetted into each treated well and several control wells per plate. Plates are incubated at 20° C. Observations for efficacy are made under a dissecting microscope at 4 and 24 hours post-immersion. Immediately prior to reading the plate, it is gently tapped to stimulate the movement of the worms. Activity is judged subjectively, but semi-quantitatively, based on the drug effects on motility of the adults and larvae.

[3] = test system: Spodoptera eridania, 2nd instar larvae, southern armyworm (SAW); assay: Southern armyworm (SAW) leaf dip test; set-up: key: 0 = no effect; 1 = 10-25% kill; 2 = 26-35% kill; 3 = 36-45% kill; 4 = 46-55% kill; 5 = 56-65% kill; 6 = 66-75% kill; 7 = 76-85% kill; 8 = 86-99% kill; 9 = 100% kill
Protocol: (§1) Test solutions are prepared by dissolving the test compound in a 35% acetone in water mixture to give a concentration of 10,000 ppm. Subsequent dilutions are made with water as needed.
Spodoptera eridania, 2nd Instar Larvae, Southern Armyworm (SAW)
A Sieva lima bean leaf expanded to 7-8 cm in length is dipped in the test solution with agitation for 3 seconds and allowed to dry in a hood. The leaf is then placed in a 100×10 mm petri dish containing a damp filter paper on the bottom and ten 2nd instar caterpillars. At 5 days, observations are made of mortality, reduced feeding, or any interference with normal molting.

[4] = test system: Diabrotica virgifera virgifera Leconte, 2nd instar western corn rootworm (WCR); assay: Western corn rootworm (WCR) soil test; set-up: key: 0 = no effect; 1 = 10-25% kill; 2 = 26-35% kill; 3 = 36-45% kill; 4 = 46-55% kill; 5 = 56-65% kill; 6 = 66-75% kill; 7 = 76-85% kill; 8 = 86-99% kill; 9 = 100% kill
Protocol: Test solutions are prepared by dissolving the test compound in a 35% acetone in water mixture to give a concentration of 10,000 ppm. Subsequent dilutions are made with water as needed. Diabrotica virgifera virgifera Leconte, 2nd Instar Western Corn Rootworm (WCR) One cc of fine talc is placed in a 30 mL wide-mouth screw-top glass jar. One mL of the appropriate acetone test solution is pipetted onto the talc so as to provide 1.25 mg of active ingredient per jar. The jars are set under a gentle air flow until the acetone is evaporated. The dried talc is loosened, 1 cc of millet seed is added to serve as food for the insects and 25 mL of moist soil is added to each jar. The jar is capped and the contents thoroughly mixed mechanically. Following this, ten 2nd instar rootworms are added to each jar and the jars are loosely capped to allow air exchange for the larvae. The treatments are held for 5 days when mortality counts are made. Missing larvae are presumed dead, since they decompose rapidly and cannot be found. The concentrations of active ingredient used in this test correspond approximately to 50 kg/ha. [table]

[5] = test system: Tetranychus urticae (OP-resistant strain), 2-spotted spider mite (TSM); assay: 2-spotted spider mite (TSM) plant dip test; set-up: key: 0 = no effect; 1 = 10-25% kill; 2 = 26-35% kill; 3 = 36-45% kill; 4 = 46-55% kill; 5 = 56-65% kill; 6 = 66-75% kill; 7 = 76-85% kill; 8 = 86-99% kill; 9 = 100% kill; settings: mortality after 2 days
Protocol: as §1
Tetranychus urticae (OP-resistant strain), 2-spotted Spider Mite (TSM)
Sieva lima bean plants with primary leaves expanded to 7-8 cm are selected and cut back to one plant per pot. A small piece is cut from an infested leaf taken from the main colony and placed on each leaf of the test plants. This is done about 2 hours before treatment to allow the mites to move over to the test plant to lay eggs. The size of the cut, infested leaf is varied to obtain about 100 mites per leaf. At the time of test treatment, the piece of leaf used to transfer the mites is removed and discarded. The newly-infested plants are dipped in the test solution for 3 seconds with agitation and set in the hood to dry. After 2 days, one leaf is removed and mortality counts are made.

[6] = test system: Aphis gossypii, cotton aphid (CA); assay: Cotton aphid (CA) cotyledon dip test; set-up: key: 0 = no effect; 1 = 10-25% kill; 2 = 26-35% kill; 3 = 36-45% kill; 4 = 46-55% kill; 5 = 56-65% kill; 6 = 66-75% kill; 7 = 76-85% kill; 8 = 86-99% kill; 9 = 100% kill; settings: mortality after 5 days
Protocol: Test solutions are prepared by dissolving the test compound in a 35% acetone in water mixture to give a concentration of 10,000 ppm. Subsequent dilutions are made with water as needed. Aphis gossypii, Cotton Aphid (CA) Cotton plants at the cotyledon stage are selected and cut back to one plant per pot. A heavily infested leaf is taken from the main colony and placed on top of each cotyledon. The aphids are allowed to transfer to the host plant overnight. At the time of test treatment, the leaf used to transfer the aphids is removed and discarded. The cotyledons are dipped in the test solution and allowed to dry. After 5 days, mortality counts are made. [table]

| SMILES | M. incognita (150 ppm) score [1] | Rating Against C. elegans (150 ppm) [2] | SAW (300 ppm) rating [3] | WCR (50 ppm) rating [4] | TSM (300 ppm) rating [5] | CA (300 ppm) rating [6] |
| --- | --- | --- | --- | --- | --- | --- |
| O=[N+]([O-])CC(SCC(O)CO)c1ccccc1 (stereo not shown) [Example 85] | 9 | 7 | – | – | – | – |
| O=C(O)CSC(C[N+](=O)[O-])c1ccc(Cl)cc1 (stereo not shown) [Example 78] | 9 | 7 | 0 | 0 | 0 | 0 |
| CCOC(=O)CSC(C[N+](=O)[O-])c1ccc(Cl)cc1 (stereo not shown) [Example 71] | 0 | 7 | 0 | 0 | 0 | 0 |
| CCCCC(CC)COC(=O)CSC(C[N+](=O)[O-])c1ccc(Cl)cc1 (stereo not shown) [Example 74] | 0 | 0 | 0 | 0 | 0 | 0 |
| COc1ccc(C(C[N+](=O)[O-])SCC(=O)O)cc1 (stereo not shown) [Example 69] | 9 | 9 | 0 | 0 | 0 | 0 |
| CCCOC(=O)CSC(C[N+](=O)[O-])c1ccc(F)c(F)c1 (stereo not shown) [Example 154] | – | – | 0 | 0 | 0 | 0 |
| CC(C)CCCCCOC(=O)CSC(C[N+](=O)[O-])c1ccc(Cl)cc1 (stereo not shown) [Example 73] | 0 | 0 | 0 | 0 | 0 | 0 |
| O=[N+]([O-])CC(SCc1ccco1)c1ccc2c(c1)OCO2 (stereo not shown) [Example 159] | – | – | 0 | 0 | 0 | 0 |
| O=C(O)CSC(C[N+](=O)[O-])c1ccc2c(c1)OCO2 (stereo not shown) [Example 64] | 9 | 9 | 0 | 0 | 9 (9 = 100% kill) | 0 |
| CC(C(SCC(=O)O)c1ccccc1)[N+](=O)[O-] (stereo not shown) [Example 161] | – | – | 0 | 4 (4 = 46-55% kill) | 0 | 0 |
| COC(=O)CSC(C[N+](=O)[O-])c1ccc(F)c(F)c1 (stereo not shown) [Example 152] | – | – | 0 | 7 (7 = 76-85% kill) | 0 | 0 |
| CC(C)c1ccc(C(C[N+](=O)[O-])SCC(=O)O)cc1 (stereo not shown) [Example 66] | 9 | 9 | 0 | 8 (8 = 86-99% kill) | 0 | 0 |
| COc1cc(OC)cc(C(C[N+](=O)[O-])SCC(O)CO)c1 (stereo not shown) [Example 87] | 0 | 0 | – | – | – | – |
| O=C(O)CSC(C[N+](=O)[O-])c1ccccc1F (stereo not shown) [Example 67] | 9 | 9 | 0 | 9 (9 = 100% kill) | 0 | 0 |
| COc1ccc(C(C[N+](=O)[O-])SCc2ccccc2)c(OC)c1 (stereo not shown) [Example 81] | 0 | 7 | – | – | – | – |
| O=[N+]([O-])CC(SCc1ccco1)c1ccccc1 (stereo not shown) [Example 156] | – | – | 0 | 0 | 0 | 0 |
| COc1ccc(C(C[N+](=O)[O-])SCC(N)C(=O)O)c(OC)c1 (stereo not shown) [Example 84] | 0 | 9 | – | – | – | – |
| COC(=O)CSC(C[N+](=O)[O-])c1ccc(OC)c(OC)c1 (stereo not shown) [Example 86] | 0 | 0 | – | – | – | – |
| COC(=O)CSC(c1ccccc1)C(C)[N+](=O)[O-] (stereo not shown) [Example 150] | – | – | 0 | 6 (6 = 66-75% kill) | 0 | 0 |
| NC(CSC(C[N+](=O)[O-])c1ccccc1)C(=O)O (stereo not shown) [Example 83] | 9 | 9 | – | – | – | – |
| C=CCSC(C[N+](=O)[O-])c1ccc(Cl)cc1 (stereo not shown) [Example 77] | 0 | 0 | 0 | 0 | 3 (3 = 36-45% kill) | – |
| CC(C)OC(=O)CSC(C[N+](=O)[O-])c1ccc(F)c(F)c1 (stereo not shown) [Example 155] | – | – | 0 | 0 | 3 (3 = 36-45% kill) | 0 |
| COC(=O)CSC(C[N+](=O)[O-])c1ccc(OC)cc1OC (stereo not shown) [Example 79] | 0 | 7 | – | – | – | – |
| CCOC(=O)CSC(C[N+](=O)[O-])c1ccc(F)c(F)c1 (stereo not shown) [Example 153] | – | – | 0 | 0 | 0 | 0 |
| CCCCOC(=O)CSC(c1ccccc1)C(C)[N+](=O)[O-] (stereo not shown) [Example 162] | – | – | 0 | 6 (6 = 66-75% kill) | 0 | 0 |
| COc1ccc(C(C[N+](=O)[O-])SCC(=O)N2CCOCC2)c(OC)c1 (stereo not shown) [Example 80] | 0 | 7 | – | – | – | – |
| CCOC(=O)CSC(c1ccccc1)C(C)[N+](=O)[O-] (stereo not shown) [Example 151] | – | – | 0 | 0 | 0 | 0 |

From patent US6358883B1, “Pesticidal and parasiticidal use of 1-aryl-1-(substituted thio, sulfinyl and sulfonyl)-2-nitroethane compounds” (American Cyanamid Company, priority 1998, dated 2002)
